The values below come from patent publication US20250326795A1, “USE OF D-ENANTIOMERIC PEPTIDE LIGANDS OF MONOMERIC TAU FOR THE THERAPY OF VARIOUS TAUOPATHIES” (PRIAVOID GMBH, priority 2021, published 2025).

Where two headings read alike, the source gives them in different places. Where a SMILES comes first, the peptide text is derived from it. [ ]: non-standard residue; d: D form.

One data set has as its target T1, tau in full-length (Homo sapiens, UniProt P10636).
T1 construct: MST measurement of TF2D-5, TF2D-5a and CP1 with tau in full-length
Put plainly: MST measurement of CF633-labelled peptides with tau in full-length. The class given is binding. The settings on record: read-out: KD (MST, Boltzmann fit). On the procedure: MST measurement of TF2D-5, TF2D-5a and CP1 with tau in full-length. A) Boltzmann fit of TF2D-5 MST measurements with tau in full-length. TF2D-5 was labelled with CF633. The concentration of TF2D-5 was 500 nM, while the concentration of tau in full-length was between 2.5 μM and 0.2 pM. The measurement was performed in 1×PBS pH 7.4 with 150 mM NaCl. […] B) Boltzmann fit of TF2D-5a MST measurements with tau in full length. TF2D-5a was labelled with CF633. The concentration of TF2D-5a was 62.5 nM, while the concentration of tau in full-length varied between 300 nM and 0.5 nM. The measurement was performed in 0.1 M sodium phosphate buffer pH 7.4 with 75 mM sodium sulphate and 0.05% Tween 20. […] C) Average of the CP1-MST measurements with tau in full length. CP1 consists of the same amino acids as TF2D-5, but with a different distribution of the amino acids. CP1 was labelled with CF633. The concentration of CP1 was 62.5 nM, while the concentration of tau in full-length varied between […] and 0.2 pM. The measurement was performed in 0.1 M sodium phosphate buffer pH 7.4 with 75 mM sodium sulphate and 0.05% Tween 20. […] D) Calculated KDs of the individual peptides to tau in full-length at a glance. All experiments were repeated four times and the average of all measurements was calculated, which in turn was used to calculate the fits (Boltzmann).

The target in data set [1] is T2, monomeric full-length tau 441 (Homo sapiens, UniProt P10636).
T2 construct: SPR measurement of TF2D-5 and TF2D-5a with full-length tau 441
Briefly: SPR measurement of peptide binding to tau. The settings on record: for Kd: SPR T200 Biacore, peptide immobilised on CM5 chip, monomeric tau as analyte, TBS pH 7.4, 0.05% Tween 20, DTT, 1:1 model (FIG. 2b). On the procedure:
SPR measurements of TF2D-5 with the analyte tau. Seven concentrations of tau were prepared for the measurement, with the highest concentration at 100 nM and the lowest concentration at 1.56 nM. The running buffer contained TBS with 0.1% Tween. The Koff was determined to be approximately 6×10-5 s-1.
The tau concentration during the measurement varied from 3.125 nM to 25 nM. […] Tau was used at concentrations from 31.25 nM to 500 nM. SPR measurements of A and B were recorded on a T200 Biacore instrument, the respective peptide was immobilised on a CM5 chip from Cytiva, while monomeric tau served as the analyte. The tests were performed using TBS pH 7.4, 0.05% Tween […] DTT as running buffer. The fit calculation was performed using the internal evaluation software of the T200 Biacore. A 1:1 model was used for both fits.

A further data set deals with tau (Homo sapiens, UniProt P10636). Put plainly: ThT assay of heparin-induced tau aggregation (with AFM analysis). The class given is biochemical. The conditions noted are these: 15 μM tau, 8 μM heparin, 20 μM ThT; for effect on tau aggregation (ThT analysis): 15 μM peptide, 37° C., PBS pH 7.4 (FIG. 1). The method, then:
The effects of TF2D-1 and TF2D-5 on tau aggregation are shown. The ThT assay was performed by incubation of 15 μM tau with 8 μM heparin, 20 μM THT and 15 μM of either of the two peptides TF2D-1 or TF2D-5 at 37° C. in PBS pH 7.4. The sample without addition of the peptide is shown in red. The samples in which TF2D-1 or TF2D-5 was present are shown in green (TF2D-1) and blue (TF2D-5).
Shown are the effects of TF2D-5 on tau aggregation. The ThT assay was performed by incubation of 15 μM tau with 8 μM heparin, 20 μM ThT, 10% DMSO and different concentrations of TF2D-5 at 37° C. pH 7.0. The images next to the graph show the respective AFM measurements of each sample taken after 5 days. […] The image marked with C corresponds to the blue ThT curve without dilution, where TF2D-5 was added after 24 hours. All AFM measurements were performed by drying 1 μl on a mica, followed by two wash steps with 100 μl water and measurement on JPK Nanowizard3 with intermittent contact air and an OMCL AC160TS as cantilever.

Data set [2] is described as follows: Stability study in different simulated human body fluids. Type of data set: in vitro ADME. The conditions noted are these: simulated gastric fluid pH 1, simulated intestinal fluid pH 6.8, human blood plasma, human liver microsomes (FIG. 6). On the procedure: Stability study of TF2D-5 and TF2D-5a in different simulated human body fluids. A) Stability of the peptides in simulated gastric fluid (SGF). The simulated gastric fluid consisted of 2 mg/ml sodium chloride, 3.2 mg/ml pepsin and 80 mM HCl; pH 1. B) Stability of TF2D-5 and TF2D-5a in simulated intestinal fluid (SIF). Simulated intestinal fluid consisted of 6.8 mg/ml potassium dihydrogen phosphate, 10 mg/ml pancreatic powder and 15.4 mM NaOH; pH 6.8. C) Stability of TF2D 5 and TF2D-5a in human blood plasma. Human K3EDTA blood plasma was obtained from BioTrend. D) Stability of TF2D-5 and TF2D-5a in human liver microsomes. Human liver microsomes consisted of 6 mg/ml protein (containing cytochrome P450 (CYP) enzymes), 75 mM sucrose, 1.3 mM NADPH, 3.3 mM D-glucose-6-phosphate, 0.2 u/ml D-glucose-6-phosphate dehydrogenase, 3.3 mM magnesium chloride and 100 mM potassium phosphate pH 7.4.

Another data set concerns tauk18 (LM)-YFP cells. Put plainly: Inhibition of tau aggregation in cells seeded with sonified tau fibrils. The class given is cell-based. The settings on record: three-day treatment. On the procedure:
A) TF2D-5a and the D-peptide CP-1, as negative control, were tested for their ability to inhibit the tau aggregation in tauk18 (LM)-YFP cells. The scale bar corresponds to 50 μm and applies to b-d. The significance was calculated using a one-way ANOVA followed by Dunnett's test for multiple comparisons. Three asterisks represent a p-value of less than 0.001 and four asterisks a p-value of less than 0.0001.

Sequence of tau (P10636 1-441 isoform P10636-8): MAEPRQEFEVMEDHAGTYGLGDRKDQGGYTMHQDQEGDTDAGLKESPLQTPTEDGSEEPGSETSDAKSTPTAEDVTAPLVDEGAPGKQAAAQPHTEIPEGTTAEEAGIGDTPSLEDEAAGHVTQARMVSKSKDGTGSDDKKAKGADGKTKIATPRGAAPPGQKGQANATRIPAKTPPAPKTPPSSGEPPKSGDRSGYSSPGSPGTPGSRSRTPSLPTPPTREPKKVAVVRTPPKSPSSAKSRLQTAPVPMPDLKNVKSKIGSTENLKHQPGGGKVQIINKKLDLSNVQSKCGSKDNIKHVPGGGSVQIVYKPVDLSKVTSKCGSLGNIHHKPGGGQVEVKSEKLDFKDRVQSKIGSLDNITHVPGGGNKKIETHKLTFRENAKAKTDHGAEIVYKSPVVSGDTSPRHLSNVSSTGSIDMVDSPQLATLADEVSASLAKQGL
T2 sequence (P10636 1-441 isoform P10636-8): as above
T1 sequence (P10636 1-441 isoform P10636-8): as above

Regarding `CC[C@@H](C)[C@@H](NC(=O)[C@@H](Cc1c[nH]cn1)NC(=O)CNC(=O)CNC(=O)[C@H]1CCCN1C(=O)[C@H](NC(=O)[C@@H](CCCCN)NC(=O)[C@@H](Cc1ccccc1)NC(=O)[C@@H](CC(C)C)NC(=O)[C@H](NC(=O)[C@@H](CCC(N)=O)NC(=O)[C@@H](Cc1ccc(O)cc1)NC(=O)CNC(=O)CNC(=O)[C@H](N)CC(=O)O)[C@H](C)CC)[C@H](C)CC)C(=O)N[C@H](Cc1c[nH]cn1)C(N)=O` [TF2D-5, dggyqilfkipgghih] (H-[dD]GG[dY][dQ][dI][dL][dF][dK][dI][dP]GG[dH][dI][dH]-NH2), the Kd (commonly the concentration at which binding is half-saturated) is 0.308 nM at tau in full-length (500 nM labelled peptide, tau 2.5 μM to 0.2 pM, 1×PBS pH 7.4 with 150 mM NaCl (FIG. 4A)) and 1.3 nM in data set [1]. In data set [1] (SPR, analyte tau 1.56-100 nM, running buffer TBS with 0.1% Tween (FIG. 2a)), the koff (usually the first-order rate constant of dissociation) is roughly 6e-05 s⁻¹. Moreover, at tau, the “effect on tau aggregation (ThT analysis)” value is “inhibit tau aggregation”. The “effect on tau aggregation (ThT and AFM analysis)” value on tau (10% DMSO, different concentrations of TF2D-5, 37° C., pH 7.0, AFM after 5 days (FIG. 3)) is given as “inhibits tau aggregation”. Also, in data set [2], the “stability in different body fluids” value is “very stable”.

Take `CC[C@@H](C)[C@@H](NC(=O)[C@@H](Cc1c[nH]cn1)NC(=O)CNC(=O)CNC(=O)[C@H]1CCCN1C(=O)[C@H](NC(=O)[C@@H](CCCCN)NC(=O)[C@@H](Cc1ccccc1)NC(=O)[C@@H](CC(C)C)NC(=O)[C@H](NC(=O)[C@@H](CCC(N)=O)NC(=O)[C@@H](Cc1ccc(O)cc1)NC(=O)CNC(=O)CNC(=O)[C@H](N)CC(=O)O)[C@H](C)CC)[C@H](C)CC)C(=O)N[C@H](Cc1c[nH]cn1)C(=O)N[C@H](CCCNC(=N)N)C(=O)N[C@H](CCCNC(=N)N)C(=O)N[C@H](CCCNC(=N)N)C(=O)N[C@H](CCCNC(=N)N)C(=O)N[C@H](CCCNC(=N)N)C(N)=O` [TF2D-5a, dggyqilfkipgghihrrrrr] (H-[dD]GG[dY][dQ][dI][dL][dF][dK][dI][dP]GG[dH][dI][dH][dR][dR][dR][dR][dR]-NH2): the equilibrium dissociation constant (Kd) on tau in full-length (62.5 nM labelled peptide, tau 300 nM to 0.5 nM, 0.1 M sodium phosphate buffer pH 7.4, 75 mM sodium sulphate, 0.05% Tween 20 (FIG. 4B)) turned out to be 11.7 nM; in data set [1], 6.1 nM. Moreover, in data set [2], the “stability in different body fluids” value is recorded as “very stable”. Further, in the data set with tauk18 (LM)-YFP cells (cells seeded with sonified tau fibrils (FIG. 5)), the “effect on number of cells with tau aggregates” value is on record as “concentration-dependent reduction in the number of cells with tau aggregates”. Moreover, in the data set with tauk18 (LM)-YFP cells (further reduced at 25 μM and 50 μM, one-way ANOVA, Dunnett's test), the “concentration at which reduction in number of cells with tau aggregates was significant” value worked out at 12.5 UM.

As for “Nemylwhwqypqhlrvg (H-[dN][dE][dM][dY][dL][dW][dH][dW][dQ][dY][dP][dQ][dH][dL][dR][dV]G-NH2; SMILES CSCC[C@@H](NC(=O)[C@@H](CCC(=O)O)NC(=O)[C@H](N)CC(N)=O)C(=O)N[C@H](Cc1ccc(O)cc1)C(=O)N[C@H](CC(C)C)C(=O)N[C@H](Cc1c[nH]c2ccccc12)C(=O)N[C@H](Cc1c[nH]cn1)C(=O)N[C@H](Cc1c[nH]c2ccccc12)C(=O)N[C@H](CCC(N)=O)C(=O)N[C@H](Cc1ccc(O)cc1)C(=O)N1CCC[C@@H]1C(=O)N[C@H](CCC(N)=O)C(=O)N[C@H](Cc1c[nH]cn1)C(=O)N[C@H](CC(C)C)C(=O)N[C@H](CCCNC(=N)N)C(=O)N[C@@H](C(=O)NCC(N)=O)C(C)C) [TF2D-1]”, the “effect on tau aggregation (ThT analysis)” value with tau is recorded as “inhibit tau aggregation”.
